From ChEMBL document CHEMBL3885881, “DrugMatrix”

Species: Rattus norvegicus
Experiment: DrugMatrix - Regimen: Daily Repeat
Format: toxicity, organism-based, Sprague-Dawley
Set-up: regimen Daily Repeat, gender Male, age 6-8 weeks
Settings: in vivo, po, route oral GAVAGE, […]; for ABSOLUTE BASOPHIL / ABSOLUTE EOSINOPHIL / ABSOLUTE LYMPHOCYTE / ABSOLUTE MONOCYTE / ABSOLUTE SEGMENTED NEUTROPHIL / BASOPHIL / EOSINOPHIL / ERYTHROCYTE COUNT / HEMATOCRIT / HEMOGLOBIN / LEUKOCYTE COUNT / LYMPHOCYTE / MEAN CORPUSCULAR HEMOGLOBIN / MEAN CORPUSCULAR HEMOGLOBIN CONCENTRATION / MEAN CORPUSCULAR VOLUME / MONOCYTE / NEUTROPHIL / NUCLEATED RED BLOOD CELLS / PLATELET COUNT: tissue Blood; for ALANINE AMINOTRANSFERASE / ALBUMIN / ALKALINE PHOSPHATASE / ASPARTATE AMINOTRANSFERASE / BLOOD UREA NITROGEN / CARBON DIOXIDE / CHLORIDE / CHOLESTEROL / CREATINE PHOSPHOKINASE / CREATININE / GLUCOSE / LACTATE DEHYDROGENASE / LIPASE / POTASSIUM / SODIUM / TOTAL BILIRUBIN / TOTAL PROTEIN / URIC ACID: tissue Plasma
[1] = 300 mg/kg, 72 h, dose level M1, time 3 day
[2] = 300 mg/kg, 120 h, dose level M1, time 5 day
[3] = 1500 mg/kg, 72 h, dose level High, time 3 day
[4] = 1500 mg/kg, 120 h, dose level High, time 5 day

CCc1ccc(CCOc2ccc(CC3SC(=O)NC3=O)cc2)nc1 (stereo not drawn) [PIOGLITAZONE]
ABSOLUTE BASOPHIL [1]: 0 CELLS/uL
ABSOLUTE EOSINOPHIL [1]: 0 CELLS/uL
ABSOLUTE LYMPHOCYTE [1]: 15172.67 CELLS/uL
ABSOLUTE MONOCYTE [1]: 43 CELLS/uL
ABSOLUTE SEGMENTED NEUTROPHIL [1]: 1184.33 CELLS/uL
BASOPHIL [1]: 0%
EOSINOPHIL [1]: 0%
ERYTHROCYTE COUNT [1]: 4.93 x10E6/uL
HEMATOCRIT [1]: 32.73%
HEMOGLOBIN [1]: 13 G/DL
LEUKOCYTE COUNT [1]: 16.4 x10E3/uL
LYMPHOCYTE [1]: 92.33%
MEAN CORPUSCULAR HEMOGLOBIN [1]: 26.4 pg
MEAN CORPUSCULAR HEMOGLOBIN CONCENTRATION [1]: 39.73 G/DL
MEAN CORPUSCULAR VOLUME [1]: 66.4 fL
MONOCYTE [1]: 0.33%
NEUTROPHIL [1]: 7.33%
NUCLEATED RED BLOOD CELLS [1]: 0.67 /100WBC
PLATELET COUNT [1]: 1282 x10E3/uL
ALANINE AMINOTRANSFERASE [1]: 81.33 u/L
ALBUMIN [1]: 4.1 G/DL
ALKALINE PHOSPHATASE [1]: 504.67 u/L
ASPARTATE AMINOTRANSFERASE [1]: 92 u/L
BLOOD UREA NITROGEN [1]: 13.67 mg/dL
CARBON DIOXIDE [1]: 34 mmol/L
CHLORIDE [1]: 103.33 MEQ/L
CHOLESTEROL [1]: 58.33 mg/dL
CREATINE PHOSPHOKINASE [1]: 248.33 u/L
CREATININE [1]: 0.22 mg/dL
GLUCOSE [1]: 137 mg/dL
LACTATE DEHYDROGENASE [1]: 98 u/L
LIPASE [1]: 10.67 u/L
POTASSIUM [1]: 6.5 MEQ/L
SODIUM [1]: 143.9 MEQ/L
TOTAL BILIRUBIN [1]: 0.1 mg/dL
TOTAL PROTEIN [1]: 5.47 G/DL
URIC ACID [1]: 1.27 mg/dL
ABSOLUTE BASOPHIL [2]: 0 CELLS/uL
ABSOLUTE EOSINOPHIL [2]: 0 CELLS/uL
ABSOLUTE LYMPHOCYTE [2]: 12765 CELLS/uL
ABSOLUTE MONOCYTE [2]: 138.67 CELLS/uL
ABSOLUTE SEGMENTED NEUTROPHIL [2]: 829.67 CELLS/uL
BASOPHIL [2]: 0%
EOSINOPHIL [2]: 0%
ERYTHROCYTE COUNT [2]: 4.76 x10E6/uL
HEMATOCRIT [2]: 31.27%
HEMOGLOBIN [2]: 12.9 G/DL
LEUKOCYTE COUNT [2]: 13.73 x10E3/uL
LYMPHOCYTE [2]: 93%
MEAN CORPUSCULAR HEMOGLOBIN [2]: 27.17 pg
MEAN CORPUSCULAR HEMOGLOBIN CONCENTRATION [2]: 41.37 G/DL
MEAN CORPUSCULAR VOLUME [2]: 65.73 fL
MONOCYTE [2]: 1%
NEUTROPHIL [2]: 6%
NUCLEATED RED BLOOD CELLS [2]: 0.67 /100WBC
PLATELET COUNT [2]: 1095.33 x10E3/uL
ALANINE AMINOTRANSFERASE [2]: 71.67 u/L
ALBUMIN [2]: 4.07 G/DL
ALKALINE PHOSPHATASE [2]: 406.67 u/L
ASPARTATE AMINOTRANSFERASE [2]: 102.33 u/L
BLOOD UREA NITROGEN [2]: 14.33 mg/dL
CARBON DIOXIDE [2]: 33.33 mmol/L
CHLORIDE [2]: 101.33 MEQ/L
CHOLESTEROL [2]: 56.67 mg/dL
CREATINE PHOSPHOKINASE [2]: 223.67 u/L
CREATININE [2]: 0.16 mg/dL
GLUCOSE [2]: 150.33 mg/dL
LACTATE DEHYDROGENASE [2]: 224.33 u/L
LIPASE [2]: 10.33 u/L
POTASSIUM [2]: 5.99 MEQ/L
SODIUM [2]: 143.9 MEQ/L
TOTAL BILIRUBIN [2]: 0.1 mg/dL
TOTAL PROTEIN [2]: 5.73 G/DL
URIC ACID [2]: 1.43 mg/dL
ABSOLUTE BASOPHIL [3]: 0 CELLS/uL
ABSOLUTE EOSINOPHIL [3]: 0 CELLS/uL
ABSOLUTE LYMPHOCYTE [3]: 8411 CELLS/uL
ABSOLUTE MONOCYTE [3]: 92.33 CELLS/uL
ABSOLUTE SEGMENTED NEUTROPHIL [3]: 1396.67 CELLS/uL
BASOPHIL [3]: 0%
EOSINOPHIL [3]: 0%
ERYTHROCYTE COUNT [3]: 4.68 x10E6/uL
HEMATOCRIT [3]: 29.23%
HEMOGLOBIN [3]: 11.2 G/DL
LEUKOCYTE COUNT [3]: 9.9 x10E3/uL
LYMPHOCYTE [3]: 84.33%
MEAN CORPUSCULAR HEMOGLOBIN [3]: 23.93 pg
MEAN CORPUSCULAR HEMOGLOBIN CONCENTRATION [3]: 38.27 G/DL
MEAN CORPUSCULAR VOLUME [3]: 62.47 fL
MONOCYTE [3]: 1%
NEUTROPHIL [3]: 14.67%
NUCLEATED RED BLOOD CELLS [3]: 0.33 /100WBC
PLATELET COUNT [3]: 1023.33 x10E3/uL
ALANINE AMINOTRANSFERASE [3]: 85.67 u/L
ALBUMIN [3]: 3.97 G/DL
ALKALINE PHOSPHATASE [3]: 537.33 u/L
ASPARTATE AMINOTRANSFERASE [3]: 97.67 u/L
BLOOD UREA NITROGEN [3]: 12.33 mg/dL
CARBON DIOXIDE [3]: 34.67 mmol/L
CHLORIDE [3]: 101 MEQ/L
CHOLESTEROL [3]: 67 mg/dL
CREATINE PHOSPHOKINASE [3]: 311.67 u/L
CREATININE [3]: 0.36 mg/dL
GLUCOSE [3]: 131 mg/dL
LACTATE DEHYDROGENASE [3]: 114.33 u/L
LIPASE [3]: 9.67 u/L
POTASSIUM [3]: 5.48 MEQ/L
SODIUM [3]: 145 MEQ/L
TOTAL BILIRUBIN [3]: 0.1 mg/dL
TOTAL PROTEIN [3]: 5.57 G/DL
URIC ACID [3]: 0.67 mg/dL
ABSOLUTE BASOPHIL [4]: 0 CELLS/uL
ABSOLUTE EOSINOPHIL [4]: 36.67 CELLS/uL
ABSOLUTE LYMPHOCYTE [4]: 8937 CELLS/uL
ABSOLUTE MONOCYTE [4]: 131.33 CELLS/uL
ABSOLUTE SEGMENTED NEUTROPHIL [4]: 1128.33 CELLS/uL
BASOPHIL [4]: 0%
EOSINOPHIL [4]: 0.33%
ERYTHROCYTE COUNT [4]: 4.76 x10E6/uL
HEMATOCRIT [4]: 30.03%
HEMOGLOBIN [4]: 11.5 G/DL
LEUKOCYTE COUNT [4]: 10.23 x10E3/uL
LYMPHOCYTE [4]: 87.33%
MEAN CORPUSCULAR HEMOGLOBIN [4]: 24.2 pg
MEAN CORPUSCULAR HEMOGLOBIN CONCENTRATION [4]: 38.3 G/DL
MEAN CORPUSCULAR VOLUME [4]: 63.17 fL
MONOCYTE [4]: 1.33%
NEUTROPHIL [4]: 11%
NUCLEATED RED BLOOD CELLS [4]: 0 /100WBC
PLATELET COUNT [4]: 962 x10E3/uL
ALANINE AMINOTRANSFERASE [4]: 56.33 u/L
ALBUMIN [4]: 3.93 G/DL
ALKALINE PHOSPHATASE [4]: 338.67 u/L
ASPARTATE AMINOTRANSFERASE [4]: 80 u/L
BLOOD UREA NITROGEN [4]: 13.67 mg/dL
CARBON DIOXIDE [4]: 33.67 mmol/L
CHLORIDE [4]: 101 MEQ/L
CHOLESTEROL [4]: 62.67 mg/dL
CREATINE PHOSPHOKINASE [4]: 366 u/L
CREATININE [4]: 0.36 mg/dL
GLUCOSE [4]: 140.67 mg/dL
LACTATE DEHYDROGENASE [4]: 107.33 u/L
LIPASE [4]: 8.67 u/L
POTASSIUM [4]: 5.6 MEQ/L
SODIUM [4]: 144.53 MEQ/L
TOTAL BILIRUBIN [4]: 0.17 mg/dL
TOTAL PROTEIN [4]: 5.47 G/DL
URIC ACID [4]: 0.63 mg/dL
